Reference: article PMC11240139, “Exploring the antitumor potential of novel quinoline derivatives via tubulin polymerization inhibition in breast cancer; design, synthesis and molecular docking” (RSC Advances, 2024)

Columns and labels:
Experiment in all cases: NCI-60 SRB cytotoxicity screen
Type in all cases: cell-based
[1] = tested on: HCC-2998 (colon cancer); details: Homo sapiens; HCC-2998, single dose 10 μM; read-out: growth inhibition (GI%)
[2] = tested on: COLO 205 (colon cancer); details: Homo sapiens; COLO 205, single dose 10 μM; read-out: growth inhibition (GI%)
[3] = tested on: UACC-62 (melanoma); details: Homo sapiens; UACC-62, single dose 10 μM; read-out: growth inhibition (GI%)
[4] = tested on: HL-60(TB) (leukemia); details: Homo sapiens, single dose 10 μM, read-out: growth inhibition (GI%)
[5] = tested on: RXF 393 (renal cancer); details: Homo sapiens; RXF 393, single dose 10 μM; read-out: growth inhibition (GI%)
[6] = tested on: SF-268 (CNS cancer); details: Homo sapiens; SF-268, single dose 10 μM; read-out: growth inhibition (GI%)
[7] = tested on: K-562 (leukemia); details: Homo sapiens; K-652 [sic], single dose 10 μM; read-out: growth inhibition (GI%)
[8] = tested on: OVCAR-3 (ovarian cancer); details: Homo sapiens; OVCAR-3, single dose 10 μM; read-out: growth inhibition (GI%)
[9] = tested on: T-47D (breast cancer); details: Homo sapiens, T47D, single dose 10 μM, read-out: growth inhibition (GI%)
[10] = tested on: SNB-19 (CNS cancer); details: Homo sapiens; SNB-19, single dose 10 μM; read-out: growth inhibition (GI%)
[11] = tested on: HCT-116 (colon cancer); details: Homo sapiens; HCT-116, single dose 10 μM; read-out: growth inhibition (GI%)
[12] = tested on: DU-145 (prostate cancer); details: Homo sapiens; DU-145, single dose 10 μM; read-out: growth inhibition (GI%)
[13] = tested on: IGROV1 (ovarian cancer); details: Homo sapiens, IGROV-1; IGROV1, single dose 10 μM; read-out: growth inhibition (GI%)
[14] = tested on: SK-MEL-5 (melanoma); details: Homo sapiens; SK-MEL-5, single dose 10 μM; read-out: growth inhibition (GI%)
[15] = tested on: KM12 (colon cancer); details: Homo sapiens; KM12, single dose 10 μM; read-out: growth inhibition (GI%)
[16] = tested on: MDA-MB-468 (breast cancer); details: Homo sapiens; MDA-MB-468, single dose 10 μM; read-out: growth inhibition (GI%)
Experimental: The cytotoxic activity of the synthesized quinoline derivatives was determined by the national cancer institute (NCI, Bethesda, Maryland, USA) against 60 different cancer cell lines at a single high dose (10^−5 M) in the full NCI 60 cell panel using the sulforhodamine B assay for cell viability evaluation. In summary, 5 × 10^3 cells were in 96-well plate and incubated in complete media for 24 h. Cells were treated with 100 μL of media containing each newly synthesized compound. After drug exposure, cells were fixed by replacing media with 150 μL of 10% TCA and incubated at 4 °C for 1 h. The TCA solution was removed, and the cells were washed 5 times with distilled water. Aliquots of 70 μL SRB solution (0.4% w/v) were added and incubated in a dark place at room temperature for 10 min. The plates were washed 3 times with 1% acetic acid and allowed to air-dry overnight. Then, 150 μL of TRIS (10 mM) was added to dissolve protein-bound SRB stain. The absorbance was measured at 540 nm.% Cytotoxicity = [1 − (AVx/AVNC)] × 100where AVx denotes the average absorbance of the sample well and AVNC denotes the average absorbance of the negative control.
The methodology of the NCI anticancer screening has been described in details at (http://www.dtp.nci.nih.gov). The anticancer assay was performed in full NCI 60 cell lines derived from nine tumor subpanels, including leukemia, lung, colon, CNS, melanoma, ovarian, renal, prostate, and breast cancer cell lines.
The cell lines were first cultured for 48 h, after being exposed to a single dosage of the compound. Using the protein-binding dye sulforhodamine B dye, cell proliferation and viability were evaluated (SRB assay). The results were presented for each chemical as GI%. Compound that met NCI criteria for substantial activity were further evaluated using a five-dose experiment. The NCI60 cell lines were treated with the chemicals in this assay at five different concentration levels (0.01, 0.1, 1, 10, and 100 μM).

[17] = tested on: BT-549 (breast cancer); details: Homo sapiens; BT-549, single dose 10 μM; read-out: growth inhibition (GI%)
[18] = tested on: MCF7 (breast cancer); details: Homo sapiens; MCF7, single dose 10 μM; read-out: growth inhibition (GI%)
[19] = tested on: HOP-62 (non-small cell lung cancer); details: Homo sapiens; HOP-62, single dose 10 μM; read-out: growth inhibition (GI%)
[20] = tested on: SK-MEL-28 (melanoma); details: Homo sapiens; SK-MEL-28, single dose 10 μM; read-out: growth inhibition (GI%)
[21] = tested on: NCI-H23 (non-small cell lung cancer); details: Homo sapiens; NCI-H23, single dose 10 μM; read-out: growth inhibition (GI%)
[22] = tested on: SR (leukemia); details: single dose 10 μM; for inhibition at 10 µM: read-out: growth inhibition (GI%)
[23] = tested on: RPMI-8226 (leukemia); details: Homo sapiens; RPMI-8226, single dose 10 μM; read-out: growth inhibition (GI%)
[24] = tested on: HS 578T (breast cancer); details: Homo sapiens, single dose 10 μM, read-out: growth inhibition (GI%)
[25] = tested on: NCI-H522 (non-small cell lung cancer); details: Homo sapiens; NCI-H522, single dose 10 μM; read-out: growth inhibition (GI%)

`CCc1cccc2cc(C=CC(=O)c3ccc(OC)cc3)c(Cl)nc12` [Compound 3a, 3-(2-Chloro-8-ethylquinolin-3-yl)-1-(4-methoxyphenyl)prop-2-en-1-one] showed an inhibition at 10 µM [1] of less than 10%, an inhibition at 10 µM [2] of less than 10% and an inhibition at 10 µM [3] of 17.1%. The inhibition at 10 µM [4] was 45.8%, the inhibition at 10 µM [5] was 23.8% and the inhibition at 10 µM [6] was less than 10%. It also gave an inhibition at 10 µM [7] of less than 10%, an inhibition at 10 µM [8] of less than 10% and an inhibition at 10 µM [9] of 44%. It also gave an inhibition at 10 µM [10] of less than 10%, an inhibition at 10 µM [11] of less than 10% and an inhibition at 10 µM [12] of less than 10%. It also gave an inhibition at 10 µM [13] of less than 10%, an inhibition at 10 µM [14] of less than 10% and an inhibition at 10 µM [15] of less than 10%. For the same compound, the inhibition at 10 µM [16] was less than 10%, the inhibition at 10 µM [17] was 22.5% and the inhibition at 10 µM [18] was 18%. For the same compound, the inhibition at 10 µM [19] was less than 10%, the inhibition at 10 µM [20] was less than 10% and the inhibition at 10 µM [21] was less than 10%. The inhibition at 10 µM [22] was 38.4%, the inhibition at 10 µM [23] was 22.1% and the inhibition at 10 µM [24] was less than 10%. For the same compound, the inhibition at 10 µM [25] was 21.1%.

`CCc1cccc2cc(C=CC(=O)c3ccc(OC)c(OC)c3)c(Cl)nc12` [Compound 3b, 3-(2-Chloro-8-ethylquinolin-3-yl)-1-(3,4-dimethoxyphenyl)prop-2-en-1-one] gave an inhibition at 10 µM [1] of 17.7%, an inhibition at 10 µM [2] of 22.4% and an inhibition at 10 µM [3] of 35.9%. It also gave an inhibition at 10 µM [4] of 61%, an inhibition at 10 µM [5] of 22.1% and an inhibition at 10 µM [6] of less than 10%. For the same compound, the inhibition at 10 µM [7] was 55.7%, the inhibition at 10 µM [8] was 31.7% and the inhibition at 10 µM [9] was 57.9%. The inhibition at 10 µM [10] was 54.4%, the inhibition at 10 µM [11] was 62.8% and the inhibition at 10 µM [12] was 15.8%. For the same compound, the inhibition at 10 µM [13] was less than 10%, the inhibition at 10 µM [14] was 23.2% and the inhibition at 10 µM [15] was 23.5%. It also gave an inhibition at 10 µM [16] of 39.8%, an inhibition at 10 µM [17] of 50.3% and an inhibition at 10 µM [18] of 37.1%. It also gave an inhibition at 10 µM [19] of less than 10%, an inhibition at 10 µM [20] of less than 10% and an inhibition at 10 µM [21] of 20.2%. For the same compound, the “growth inhibition (GI%)” value [22] was 80.06%, the inhibition at 10 µM [22] was 80.1% and the inhibition at 10 µM [23] was 56.2%. It also gave an inhibition at 10 µM [24] of less than 10% and an inhibition at 10 µM [25] of 41.5%.

Compound `CCc1cccc2cc(C3C=C(c4ccc(OC)c(OC)c4)NC(=S)N3)c(Cl)nc12` (centres unmarked) [Compound 6b, 4-(2-Chloro-8-ethylquinolin-3-yl)-6-(3,4-dimethoxyphenyl)-3,4-dihydropyrimidine-2(1H)-thione] has an inhibition at 10 µM [1] of less than 10%, an inhibition at 10 µM [2] of less than 10% and an inhibition at 10 µM [3] of 10.3%. For the same compound, the inhibition at 10 µM [4] was 10.7%, the inhibition at 10 µM [5] was less than 10% and the inhibition at 10 µM [6] was 16.6%. For the same compound, the inhibition at 10 µM [7] was 10.5%, the inhibition at 10 µM [8] was less than 10% and the inhibition at 10 µM [9] was 24.9%. For the same compound, the inhibition at 10 µM [10] was less than 10%, the inhibition at 10 µM [11] was 17.2% and the inhibition at 10 µM [12] was less than 10%. The inhibition at 10 µM [13] was less than 10%, the inhibition at 10 µM [14] was 14.1% and the inhibition at 10 µM [15] was less than 10%. The inhibition at 10 µM [16] was 13.2%, the inhibition at 10 µM [17] was 12.8% and the inhibition at 10 µM [18] was 15.7%. For the same compound, the inhibition at 10 µM [19] was 11%, the inhibition at 10 µM [20] was less than 10% and the inhibition at 10 µM [21] was less than 10%. For the same compound, the inhibition at 10 µM [23] was 36.1%, the inhibition at 10 µM [24] was 12.9% and the inhibition at 10 µM [25] was 22.1%.

`CCc1cccc2cc(C3C=C(c4cc(OC)c(OC)c(OC)c4)NC(=S)N3)c(Cl)nc12` (centres unmarked) [Compound 6c, 4-(2-Chloro-8-ethylquinolin-3-yl)-6-(3,4,5-trimethoxyphenyl)-3,4-dihydropyrimidine-2(1H)-thione] gave an inhibition at 10 µM [1] of 26.1%, an inhibition at 10 µM [2] of 24.4% and an inhibition at 10 µM [3] of 35.5%. For the same compound, the inhibition at 10 µM [4] was 41.5%, the inhibition at 10 µM [5] was 40.6% and the inhibition at 10 µM [6] was 42.4%. It also gave an inhibition at 10 µM [7] of 44.6%, an inhibition at 10 µM [8] of 14.2% and an inhibition at 10 µM [9] of 48.6%. For the same compound, the inhibition at 10 µM [10] was 23.4%, the inhibition at 10 µM [11] was 41.2% and the inhibition at 10 µM [12] was 21.7%. For the same compound, the inhibition at 10 µM [13] was 14.3%, the inhibition at 10 µM [14] was 38.2% and the inhibition at 10 µM [15] was 28.1%. For the same compound, the inhibition at 10 µM [16] was 40.5%, the inhibition at 10 µM [17] was 10.5% and the inhibition at 10 µM [18] was 44.3%. It also gave an inhibition at 10 µM [19] of 10.5%, an inhibition at 10 µM [21] of 25.8% and an inhibition at 10 µM [23] of 57.6%. It also gave an inhibition at 10 µM [24] of 39.6% and an inhibition at 10 µM [25] of 50.3%.
